Measurements taken from PMC7367369, “A small library of chalcones induce liver cancer cell death through Akt phosphorylation inhibition” (Scientific Reports, 2020).

Columns and labels:
Assay type in all cases: cell-based, human
[1] = system: pRb (Ser807/811) in Mahlavu cells; assay: Western blot, phosphorylated Rb protein levels; conditions: IC50 concentrations, 24 h
Experimental: (§1) Figure 4 Proteins targeted by the compounds. Human liver cancer cells (Mahlavu) were treated with the IC50 concentrations of the selected compounds or DMSO control for 24 h. […] (B–D) Quantification of the results using ImageJ software. (E) Schematic representation of the molecular mechanism of action of the compounds. Blocked signaling is crossed.
(§2) In the literature, it was shown that the anti-cancer effect of chalcones on uterus leiomyoma cells was through an increase in p21 protein[35]. Thus we also examined the levels of p21 in our cells. Furthermore, p21 is also a downstream element of Akt pathway. […] Therefore, the effect on Rb protein, which is also a downstream element of p21, was investigated in the presence of the chalcones 1, 9 and 11.
(§3) Poorly differentiated liver cancer cell line Mahlavu cells were cultured in 100 mm culture dish for 24 h. […] Anti-PARP antibody (Cell Signaling, 9532), pAkt (Ser473) antibody (Cell Signaling, 9271), Akt antibody (Cell Signaling, 9272), pNFkB-p65 (Ser468) antibody (Snat Cruz, sc101750), p21 antibody (Millipore, 05345), pRb (Ser807/811) antibody (Cell Signaling, 9308), Rb antibody (Santa Cruz, sc102), actin antibody (Sigma, A5441) and calnexin antibody (Sigma, C4731) were used as primary antibodies. Anti-rabbit (6154) and anti-mouse (0168) secondary antibodies were used. ImageJ tool ([42]) used for protein band intensity comparison. […]

[2] = system: pNFkB-p65 (Ser468) in Mahlavu cells; assay: Western blot, phosphorylation of NFkB-p65; conditions: IC50 concentrations, 24 h
Experimental: as §1
NFB is a transcription factor which is a fundamental component of inflammation pathway. This protein has also crucial roles in cell proliferation and apoptosis, thus cancer progression. […] Since the inflammation is one of the hallmarks of cancer, we also investigated the effect of our compounds on NFB protein. […] This form of NFB is the activated form which translocates into the nucleus to function as a transcription factor.
as §3, with “used.” for “used. ImageJ tool ([42]) used for protein band intensity comparison.”

p21 in Mahlavu cells = assay: Western blot, p21 protein levels; conditions: IC50 concentrations, 24 h
Experimental: as §1, §2, §3

[3] = system: PARP cleavage in Huh7 and Mahlavu cells; assay: Western blot, PARP cleavage (marker of apoptosis); conditions: 24 h
Experimental: Human liver cancer cells Mahlavu and Huh7 were treated with the compounds according to the IC50 values obtained from RT-CES experiments or DMSO controls for 72hr. […] We further assessed the effects of the selected chalcones 1, 9, and 11 on the cell cycle progression analysis of liver cancer cells. Human liver cancer cells Mahlavu and Huh7 were treated with the compounds according to the IC50 values obtained from RT-CES for 72 h. Then the DNA in the treated cells were stained with propidium iodide and analyzed with fluorescent-activated cell sorter. […] In order to confirm the induction of apoptosis in human liver cancer cells treated with the chalcones, cleavage of PARP protein (marker of apoptosis) was investigated.
Figure 3 Cell death induced by the chalcones. (A) Nuclear staining of the liver cancer cells treated with the chalcones. Human liver cancer cells (Huh7 and Mahlavu) were treated with the IC50 concentrations of the chalcones 1, 9, 11. After 72 h of incubation with the compounds or DMSO control, Hoechst (33258) staining was performed. Images were taken with fluorescent microscope (×40). Due to the strong cytotoxic activities of the chalcones the number of the cells in objective area was much less than DMSO controls. (B) Cell cycle distribution of liver cancer cells. Huh7 and Mahlavu cells were treated for 72 h with IC50 concentrations of the compounds or DMSO control. […]

Compound | phosphorylated Rb protein levels [1] | phosphorylation of NFB-p65 at Ser468 [2] | p21 protein levels (p21 in Mahlavu cells) | PARP cleavage [3]
O=C(/C=C/c1ccccc1)c1ccccc1 [compound 9] | decreased significantly | decreased significantly | increased significantly | PARP cleavage was present significantly
O=C(/C=C/c1ccc(Cl)cc1)c1ccccc1 [compound 11] | decreased significantly | decreased significantly | increased significantly | PARP cleavage was present significantly
